What was measured:
Format in all cases: in vivo, human
[1] = tested on: Asthmatic steroid naive children; test: Resveratrol substitution for glucocorticoids in asthmatic steroid naive children (Example 6)
Description: Asthmatic steroid naive children with asthma disease severe enough to require chronic pulmonary steroid therapy are divided randomly and blindly into three groups. The duration of the study should be long, as pulmonary steroids for asthma are a chronic therapy, thus 1 to 2 years or more is optimal. The first group is treated with oral resveratrol, with the group subdivided randomly and blindly into four approximately equal subgroups that receive either 0 (placebo), 200, 2000, or 3000 mg/day resveratrol for about 12 to 24 months in oral doses of 0, 50, 500, or 750 mg administered 4 times daily for about 12 to 24 months. […]
The methods of the following references may be used in the evaluation of asthmatic disease: Wohl et al. (2000) N. Engl. […] Patients are medically monitored for clinical symptoms of asthma throughout the study, including frequency and severity of acute asthma attacks. […] In addition exhaled nitric oxide (NO) and carbon monoxide (CO) levels may be measured at more frequent intervals, such as every other week. Forced expiratory volume (FEV) and forced inspiratory volume (FIV) are also evaluated to measure airway patency as a direct measure of clinical morbidity and to determine correlation the histopathologic and other indicators of clinical disease, such as exhaled NO. […]

COPD patients = test: Oral resveratrol clinical evaluation in COPD (Example 8); details: oral, 200, 2000 or 3000 mg/day, about six months
Description: Resveratrol is evaluated clinically for efficacy in treating COPD. The study is generally patterned after the asthma studies with modifications appropriate to the clinical and histopathologic evaluation of COPD disease, and the references listed in the preceding examples may be applied as appropriate. Smokers are treated once or more per day with gelatin capsules containing resveratrol. The different populations of COPD patients are subdivided into subpopulations: emphysema patients, bronchitis patients and other COPD. Patients are divided randomly and blindly into four approximately equal groups that receive either 0 (placebo), 200, 2000, or 3000 mg/day resveratrol for about six months in oral doses of 0, 50, 500, or 750 mg administered 4 times daily for about six months.
Patients are medically monitored for clinical symptoms of COPD throughout the study, including frequency and severity of hypoxemic and respiratiry acidotic exacerbations. In addition, induced sputum samples are obtained from the patients at days 0, 30, 90, and 180 and neutrophil counts are performed and the samples are assayed for IL-8 and myeloperoxidase by routine methods. Forced expiratory volume (FEV) and forced inspiratory volume (FIV) are also evaluated to measure airway patency as a direct measure of clinical morbidity and to determine correlation the histopathologic and other indicators of clinical disease. […]

[2] = tested on: Individuals at risk for ILD; test: Oral resveratrol for chemoprevention of ILD in individuals at risk (Example 11); details: 2 to 5 years
Description: Resveratrol is evaluated clinically for efficacy in chemoprevention of ILD in smokers. The study is generally patterned after the COPD chemoprevention study (Example 10) with modifications appropriate to the clinical and histopathologic evaluation of ILD, and the references listed in the preceding examples may be applied as appropriate. Individuals at risk with no disease or mild COPD are treated once or more per day with gelatin capsules containing resveratrol. A population of individuals at risk for a specific ILD, such as silicosis can be studied, or several such populations such as sand blasters (silicosis) and coal miners can be studied in parallel The different populations are subdivided into subpopulations: clinically and histopathologically disease free, clinically asymptomatic with histopathologic inflammation and mildly ILD symptomatic, meaning some fibrosis but no pulmonary impairment causing hypoxemia or acidosis. […] Patients are medically monitored for clinical symptoms of ILD throughout the study, including onset of symptoms and frequency and severity thereof. […] Forced expiratory volume (FEV) and forced inspiratory volume (FIV) are also evaluated to measure airway patency as a direct measure of clinical morbidity and to determine correlation the histopathologic and other indicators of clinical disease. […]

Oc1ccc(/C=C/c2cc(O)cc(O)c2)cc1 [Resveratrol, 3,5,4′-trihydroxystilbene]
efficacy as substitute for inhaled steroids in treating asthma ([1]; oral or pulmonary resveratrol vs pulmonary budenoside, 12 to 24 months): effective as substitutes for antiinflammatory treatment with inhaled steroids in treating asthma | systemic side effects compared with inhaled glucocorticoids ([1]; oral or pulmonary resveratrol, including suppression of growth): reduced systemic side effects | efficacy in treating COPD (COPD patients): effective for treating COPD | side effects ([2]; oral, relative to those expected from steroid administration): without significant side effects | efficacy in chemoprevention of ILD ([2]; oral, 200, 2000 or 3000 mg/day): effective for chemoprevention of ILD

From patent publication US6878751B1, “Administration of resveratrol to treat inflammatory respiratory disorders” (Imperial College of Science Technology and Medicine, priority 2000, dated 2005)
